Measurements from PubChem BioAssay (NCI).
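Grown in 96-well plates, cells were treated for 48 hours with each compound at five concentrations. Insufficient inhibition: endpoint recorded as highest concentration tested. GI50: concentration for 50% inhibition of growth. TGI: total growth inhibition.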

Assays:
Assay in all cases: NCI tumour cell line growth inhibition, 48 h
HCT-116 colon = test system: HCT-116 colon
HCT-15 colon = test system: HCT-15 colon
SK-MEL-28 melanoma = test system: SK-MEL-28 melanoma
K-562 leukemia = test system: K-562 leukemia
SK-MEL-2 melanoma = test system: SK-MEL-2 melanoma
HOP-92 NSCLC = test system: HOP-92 NSCLC
CCRF-CEM leukemia = test system: CCRF-CEM leukemia
NCI-H460 lung = test system: NCI-H460 lung
HT29 colon = test system: HT29 colon
OVCAR-4 ovarian = test system: OVCAR-4 ovarian

| Structure (SMILES) | TGI (HCT-116 colon) [µM] | TGI (HCT-15 colon) [µM] | TGI (SK-MEL-28 melanoma) [µM] | TGI (K-562 leukemia) [µM] | TGI (SK-MEL-2 melanoma) [µM] | TGI (HOP-92 NSCLC) [µM] | TGI (CCRF-CEM leukemia) [µM] | TGI (NCI-H460 lung) [µM] | TGI (HT29 colon) [µM] | TGI (OVCAR-4 ovarian) [µM] | GI50 (HCT-116 colon) [µM] | GI50 (HCT-15 colon) [µM] | GI50 (SK-MEL-28 melanoma) [µM] | GI50 (K-562 leukemia) [µM] | GI50 (SK-MEL-2 melanoma) [µM] | GI50 (HOP-92 NSCLC) [µM] | GI50 (CCRF-CEM leukemia) [µM] | GI50 (NCI-H460 lung) [µM] | GI50 (HT29 colon) [µM] | GI50 (OVCAR-4 ovarian) [µM] |
| --- | --- | --- | --- | --- | --- | --- | --- | --- | --- | --- | --- | --- | --- | --- | --- | --- | --- | --- | --- | --- |
| CN1COc2c(n(C)c(=O)[nH]c2=O)C1 | > 100 | > 100 | > 100 | > 100 | > 100 | > 100 | > 100 | > 100 | > 100 | > 100 |  |  |  |  |  |  |  |  |  |  |
| O=C(O)/C(Cl)=C(\Cl)C(=O)Nc1ccc(Cl)c(Cl)c1Cl | 28.1 | 34.8 | 42.7 | 83.1 | 33.9 | 31.1 | > 100 | 45.9 | 39.9 | 33.6 |  |  |  |  |  |  |  |  |  |  |
| CN(C)CC1CCCC1=O (centres undefined) | 2.78 | 2.56 | 6.48 | 0.549 | 19.3 | 2.97 | 0.533 | 34.6 | 2.06 | 5.58 |  |  |  |  |  |  |  |  |  |  |
| COc1ccc(C(=O)N2c3ccccc3Sc3ccccc32)c(OC)c1 | > 100 | > 100 | > 100 | > 100 | > 100 | 97.2 | > 100 | > 100 | > 100 | > 100 | 0.452 | 0.464 | 0.942 | 0.381 | 0.585 | 0.374 | 0.394 | 0.406 | 0.385 | 3.17 |
| COc1ccc(C(Cl)=C(c2ccc(OCCN(C)C)cc2)c2ccc(OCCN(C)C)cc2)cc1 | 2.68 | 3.58 | 3.11 | 3.69 | 3.12 | 6.1 | 3.83 | 3.32 | 3 | 5.99 |  |  |  |  |  |  |  |  |  |  |
| O=C(O)COc1c(Cl)cc(Cl)c2cccnc12 | > 100 | > 100 | > 100 | > 100 | > 100 | > 100 | > 100 | > 100 | > 100 | > 100 |  |  |  |  |  |  |  |  |  |  |
| CSC(=S)N/N=C(\C)c1cccc(C)n1 | 1.84 | 48.1 | 63.5 | > 7.8 | 16.5 | 13.9 | 0.102 | 9.79 | > 47.3 | 19.5 |  |  |  |  |  |  |  |  |  |  |
| C#CCOc1cccc(Nc2ncnc3c(NC(=O)CCl)cccc23)c1 | 42.1 | 72.5 | > 100 | 71.7 | 60.8 | 33.8 | 35.9 | 56 | 34.4 | > 100 | 18.1 | 20.2 | 36.4 | 17.5 | 21.1 | 17 | 10.7 | 23.7 | 18.6 | 37.1 |
| CC(C)(C)c1ccc(C(=O)Nc2sc3c(c2C(N)=O)CCC(=O)C3)cc1 | 1.29 | 2.38 | 2.77 |  | 4.73 | 2.96 | 3.37 | 1.94 | 3.5 | 1.27 | 0.287 | 0.408 | 1.13 | 0.127 | 1.9 | 1.13 | 0.215 | 0.586 | 0.489 | 0.354 |
